# Reference: PubChem BioAssay (NCI)
#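 Protocol summary: plate cells (96-well), add compound at 5 concentrations, incubate 48 h, interpolate endpoints linearly. GI50: concentration for 50% inhibition of growth. At the TGI there is no net growth.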
# What was measured:
# Assay in all cases: DTP human tumour cell line panel, 48 h
# HCT-15 colon = test system: HCT-15 colon
# MCF7 breast = test system: MCF7 breast
# LXFL 529 NSCLC = test system: LXFL 529 NSCLC
# PC-3 prostate = test system: PC-3 prostate
# HS 578T breast = test system: HS 578T breast
# SW-620 colon = test system: SW-620 colon
# 786-0 renal = test system: 786-0 renal
# SK-OV-3 ovarian = test system: SK-OV-3 ovarian
# UACC-62 melanoma = test system: UACC-62 melanoma
# DMS 273 small cell lung = test system: DMS 273 small cell lung
Compound,GI50 (HCT-15 colon),TGI (HCT-15 colon),GI50 (MCF7 breast),TGI (MCF7 breast),GI50 (LXFL 529 NSCLC),TGI (LXFL 529 NSCLC),GI50 (PC-3 prostate),TGI (PC-3 prostate),GI50 (HS 578T breast),TGI (HS 578T breast),GI50 (SW-620 colon),TGI (SW-620 colon),GI50 (786-0 renal),TGI (786-0 renal),GI50 (SK-OV-3 ovarian),TGI (SK-OV-3 ovarian),GI50 (UACC-62 melanoma),TGI (UACC-62 melanoma),GI50 (DMS 273 small cell lung),TGI (DMS 273 small cell lung)
C=C=[CH][Sn]([c]1ccccc1)([c]1ccccc1)[c]1ccccc1,1.4 µM,2.9 µM,1410 nM,2.81 µM,1.58 µM,3.02 µM,1460 nM,3.68 µM,2060 nM,7.37 µM,0.821 µM,2.17 µM,1.51 µM,2.92 µM,2.15 µM,4.73 µM,1.65 µM,3.28 µM,–,–
CCOC(=O)CNC(=O)C(CSC(=O)N(C)O)NC(=O)CCC(N)C(=O)O (centres undefined),> 2000 µM,> 2000 µM,–,–,> 2000 µM,> 2000 µM,–,–,–,–,> 2000 µM,> 2000 µM,> 2000 µM,> 2000 µM,> 2000 µM,> 2000 µM,> 2000 µM,> 2000 µM,> 2000 µM,–
NNC(=S)N/N=C/C(Cl)=C(\Cl)C(=O)O,–,> 100 µM,–,–,–,> 100 µM,–,–,–,–,–,> 100 µM,–,> 100 µM,–,–,–,> 100 µM,–,> 100 µM
COC(=O)C(=O)C1CCCCC(C2=NC3NN=C(N)N3C2=O)C1=O (centres undefined),–,> 100 µM,–,–,–,> 100 µM,–,–,–,–,–,> 100 µM,–,> 100 µM,–,> 100 µM,–,> 100 µM,–,> 100 µM
NC(=O)CCC(NC(=O)C(F)(F)F)C(=O)O (centres undefined),–,> 100 µM,–,–,–,> 100 µM,–,–,–,–,–,> 100 µM,–,> 100 µM,–,> 100 µM,–,> 100 µM,–,> 100 µM
CC12C(=O)N(CCN)C(=O)C1C1c3ccccc3C2c2ccccc21 (centres undefined),–,> 100 µM,–,–,–,> 100 µM,–,–,–,–,–,> 100 µM,–,> 100 µM,–,> 100 µM,–,> 100 µM,–,> 100 µM
C[C@]12CCCC(=O)C1C[C@H](C(=O)O)CC2 (some centres undefined),–,> 100 µM,–,–,–,> 100 µM,–,–,–,–,–,> 100 µM,–,> 100 µM,–,> 100 µM,–,> 100 µM,–,> 100 µM
Cc1cccc(N=C2NC(=O)C(CC(=O)Nc3ccc(Cl)cc3C)S2)c1 (centres undefined),–,> 100 µM,–,–,–,> 100 µM,–,–,–,–,–,> 100 µM,–,> 100 µM,–,> 100 µM,–,> 100 µM,–,> 100 µM
CCc1oc2ccc(OC)c3c2c1C=CC=C3,–,> 100 µM,–,–,–,> 100 µM,–,–,–,–,–,> 100 µM,–,> 100 µM,–,> 100 µM,–,> 100 µM,–,> 100 µM
Cc1cc(=O)[nH]c(CNC(=O)Cc2ccccc2)n1,–,> 100 µM,–,–,–,> 100 µM,–,–,–,–,–,> 100 µM,–,> 100 µM,–,> 100 µM,–,> 100 µM,–,> 100 µM
CC12OC3CC(O1)C1(C=O)C4CCC5(C)C(c6ccc(=O)oc6)CCC5(O)C4CCC1(C3)O2 (centres undefined),–,0.648 µM,–,–,–,0.432 µM,–,–,–,–,–,1.27 µM,–,0.246 µM,–,0.513 µM,–,0.781 µM,–,0.235 µM
CCC[CH2][Sn]1([CH2]CCC)[O]C(=O)c2cc(C)ccc2[O]1,0.446 µM,1.45 µM,–,–,0.129 µM,0.336 µM,–,–,–,–,0.211 µM,0.574 µM,0.215 µM,0.844 µM,1.58 µM,2.99 µM,0.465 µM,1.56 µM,0.519 µM,1.73 µM
O=[N+]([O-])c1cc(/C=N/NS(=O)(=O)c2ccc(F)cc2)c(O)c([N+](=O)[O-])c1,–,67.4 µM,–,–,–,–,–,–,–,–,–,> 100 µM,–,> 100 µM,–,78.3 µM,–,> 100 µM,–,98.9 µM
C[N+]1=c2c3cccc4cccc(c(=O)n2CCC1)c43,–,> 100 µM,–,–,–,40.7 µM,–,–,–,–,–,> 100 µM,–,> 100 µM,–,80.1 µM,–,34.1 µM,–,56.7 µM
N#Cc1ccccc1Nc1ccccc1S,–,–,–,–,–,59.3 µM,–,–,–,–,–,47.1 µM,–,78.3 µM,–,> 100 µM,–,37.8 µM,–,> 100 µM
O=C(NO)c1cnc(N2CCN(S(=O)(=O)c3ccc4ccccc4c3)CC2)nc1,0.069 µM,15.6 µM,36.9 nM,> 76 µM,–,–,78 nM,> 36 µM,101 nM,> 47.3 µM,0.0349 µM,–,0.193 µM,2.83 µM,0.147 µM,2.33 µM,0.0374 µM,0.22 µM,–,–
OC(c1ccccc1)c1c(-c2ccccc2)oc(-c2ccccc2)c1C(O)c1ccccc1 (centres undefined),–,36.8 µM,–,16.6 µM,–,–,–,24.1 µM,–,52.7 µM,–,34.1 µM,–,21 µM,–,30.1 µM,–,25.6 µM,–,–
CCN1C(=O)N(CC)C2C1NN=c1s/c(=C\c3ccccc3)c(=O)n12 (centres undefined),0.0692 µM,> 100 µM,46.3 nM,> 100 µM,–,–,157 nM,> 100 µM,146 nM,> 100 µM,0.0808 µM,> 100 µM,0.874 µM,> 100 µM,0.311 µM,> 100 µM,0.0596 µM,> 100 µM,–,–
CN1CCN(c2ccc3nc4c(nc3c2C(F)(F)F)C(=O)c2ncccc2C4=O)CC1,1.19 µM,3.11 µM,316 nM,2.09 µM,–,–,1440 nM,11.5 µM,1910 nM,5.38 µM,1.42 µM,3.52 µM,2.02 µM,4.9 µM,1.98 µM,4.98 µM,1.05 µM,2.31 µM,–,–
O=C(Nc1ccc(S(=O)(=O)NC2CCCCCC2)cc1)C(c1ccccc1)S(=O)(=O)c1ccc(F)cc1 (centres undefined),0.182 µM,2.08 µM,124 nM,1.61 µM,–,–,295 nM,2.19 µM,588 nM,3.05 µM,0.084 µM,1.98 µM,0.448 µM,2.68 µM,0.335 µM,4.03 µM,0.137 µM,0.69 µM,–,–
Cc1cc2nc3c4ccccc4n(CCN(C)C)c3nc2cc1C,1.77 µM,10.4 µM,1410 nM,7.14 µM,–,–,2010 nM,8.19 µM,1570 nM,5.76 µM,0.54 µM,9.59 µM,1.97 µM,12.2 µM,3.1 µM,20.2 µM,1.43 µM,2.82 µM,–,–
CC(=O)/C=C/C1=C(c2ccsc2)c2ccccc2CC1,18.6 µM,35.3 µM,21400 nM,40 µM,–,–,23900 nM,65.3 µM,48400 nM,> 100 µM,33.7 µM,> 100 µM,34.1 µM,> 100 µM,64.4 µM,> 100 µM,16.2 µM,37.1 µM,–,–
